pIC50: −log10 of the molar value.
Molecular target: Factor D (Homo sapiens, UniProt P00746)
Experiment: Factor D esterolytic assay (Z-Lys-SBzl thioester substrate, DTNB, 405 nm)
Assay type: biochemical
Conditions: substrate Z-Lys-SBzl 1.29 mM, 100 mM HEPES, 500 mM NaCl, pH 7.5, 10% DMSO, tested a minimum of three times
In short: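 Run in pH 7.5 HEPES (100 mM) with 500 mM NaCl and 10% DMSO, with compound preincubated at room temperature or not before adding 1.29 mM Z-Lys-SBzl. Free thiol released by Factor D reacts with DTNB, and rate is followed at 405 nm minus 690 nm over 600 s. IC50 derives from rate-based inhibition, minimum three replicates.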

Sequence of Factor D (P00746 26-253): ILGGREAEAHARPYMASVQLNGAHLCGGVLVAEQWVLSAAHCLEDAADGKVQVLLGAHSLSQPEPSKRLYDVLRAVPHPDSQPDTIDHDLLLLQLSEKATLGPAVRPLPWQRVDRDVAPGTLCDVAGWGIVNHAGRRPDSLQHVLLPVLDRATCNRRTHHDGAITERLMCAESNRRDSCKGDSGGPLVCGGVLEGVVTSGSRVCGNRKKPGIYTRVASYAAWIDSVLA

pIC50 | SMILES
> 7.00 | Cc1cc(F)c2c(c1)c1c(N)ncnc1n2CC(=O)N1[C@@H]2C[C@@H]2C[C@H]1C(=O)Nc1cccc(Br)n1 [Compound 391g, (1R,3S,5R)-2-(2-(4-amino-8-fluoro-6-methyl-9H-pyrimido[4,5-b]indol-9-yl)acetyl)-N-(6-bromopyridin-2-yl)-2-azabicyclo[3.1.0]hexane-3-carboxamide]
> 7.00 | Cc1cccc(-c2ccc3c(c2)c2c(N)ncnc2n3CC(=O)N2[C@@H]3C[C@@H]3C[C@H]2C(=O)Nc2cccc(Br)n2)c1 [Compound 271c, (1R,3S,5R)-2-(2-(4-amino-6-(m-tolyl)-9H-pyrimido[4,5-b]indol-9-yl)acetyl)-N-(6-bromopyridin-2-yl)-2-azabicyclo[3.1.0]hexane-3-carboxamide]
> 7.00 | Cc1cc(F)c(Br)nc1NC(=O)[C@@H]1C[C@@]2(C)C[C@H]2N1C(=O)Cn1c2ncnc(N)c2c2cc(C(F)(F)F)cc(C)c21 [Compound 333c, (1R,3S,5R)-2-(2-(4-amino-8-methyl-6-(trifluoromethyl)-9H-pyrimido[4,5-b]indol-9-yl)acetyl)-N-(6-bromo-5-fluoro-3-methylpyridin-2-yl)-5-methyl-2-azabicyclo[3.1.0]hexane-3-carboxamide]
> 7.00 | Cc1ncc(-c2cc(C)c3c(c2)c2c(N)ncnc2n3CC(=O)N2[C@@H]3C[C@@H]3C[C@H]2C(=O)Nc2nc(Br)ccc2C)cn1 [Compound 310a, (1R,3S,5R)-2-(2-(4-amino-8-methyl-6-(2-methylpyrimidin-5-yl)-9H-pyrimido[4,5-b]indol-9-yl)acetyl)-N-(6-bromo-3-methylpyridin-2-yl)-2-azabicyclo[3.1.0]hexane-3-carboxamide]
> 7.00 | COc1cc(OC)c2c(c1)c1c(N)ncnc1n2CC(=O)N1[C@H](C(=O)Nc2cccc(Br)n2)C[C@@]2(C)C[C@@H]12 [Compound 279a, (1R,3S,5R)-2-(2-(4-amino-6,8-dimethoxy-9H-pyrimido[4,5-b]indol-9-yl)acetyl)-N-(6-bromopyridin-2-yl)-5-methyl-2-azabicyclo[3.1.0]hexane-3-carboxamide]
> 7.00 | Cc1ccc(Cl)nc1NC(=O)[C@@H]1C[C@@H](F)CN1C(=O)Cn1c2ncnc(N)c2c2cc(C(F)(F)F)cc(C)c21 [Compound 365c, (2S,4R)-1-(2-(4-amino-8-methyl-6-(trifluoromethyl)-9H-pyrimido[4,5-b]indol-9-yl)acetyl)-N-(6-chloro-3-methylpyridin-2-yl)-4-fluoropyrrolidine-2-carboxamide]
> 7.00 | Cc1cc(-c2cccnc2)cc2c3c(N)ncnc3n(CC(=O)N3[C@H](C(=O)Nc4cccc(Br)n4)C[C@@]4(C)C[C@@H]34)c12 [Compound 289a, (1R,3S,5R)-2-(2-(4-amino-8-methyl-6-(pyridin-3-yl)-9H-pyrimido[4,5-b]indol-9-yl)acetyl)-N-(6-bromopyridin-2-yl)-5-methyl-2-azabicyclo[3.1.0]hexane-3-carboxamide]
> 7.00 | CN(C)c1ccc2c(c1)c1c(N)ncnc1n2CC(=O)N1[C@@H]2C[C@@H]2C[C@H]1C(=O)Nc1cccc(Br)n1 [Compound 262a, (1R,3S,5R)-2-(2-(4-amino-6-(dimethylamino)-9H-pyrimido[4,5-b]indol-9-yl)acetyl)-N-(6-bromopyridin-2-yl)-2-azabicyclo[3.1.0]hexane-3-carboxamide]
> 7.00 | COc1cc(Cl)cc2c3c(N)ncnc3n(CC(=O)N3[C@H](C(=O)Nc4cccc(Br)n4)C[C@@]4(C)C[C@@H]34)c12 [Compound 239a, (1R,3S,5R)-2-(2-(4-amino-6-chloro-8-methoxy-9H-pyrimido[4,5-b]indol-9-yl)acetyl)-N-(6-bromopyridin-2-yl)-5-methyl-2-azabicyclo[3.1.0]hexane-3-carboxamide]
> 7.00 | Nc1ncnc2c1c1cc(-c3cccnc3)ccc1n2CC(=O)N1[C@@H]2C[C@@H]2C[C@H]1C(=O)Nc1cccc(Br)n1 [Compound 273c, (1R,3S,5R)-2-(2-(4-amino-6-(pyridin-3-yl)-9H-pyrimido[4,5-b]indol-9-yl)acetyl)-N-(6-bromopyridin-2-yl)-2-azabicyclo[3.1.0]hexane-3-carboxamide]
> 7.00 | COc1cc(C)c2c(c1)c1c(N)ncnc1n2CC(=O)N1[C@H](C(=O)Nc2cccc(Br)n2)C[C@@]2(C)C[C@@H]12 [Compound 258a, (1R,3S,5R)-2-(2-(4-amino-6-methoxy-8-methyl-9H-pyrimido[4,5-b]indol-9-yl)acetyl)-N-(6-bromopyridin-2-yl)-5-methyl-2-azabicyclo[3.1.0]hexane-3-carboxamide]
> 7.00 | Cc1ncc(-c2cc(C)c3c(c2)c2c(N)ncnc2n3CC(=O)N2[C@@H]3C[C@@H]3C[C@H]2C(=O)Nc2cccc(Br)n2)cn1 [Compound 308c, (1R,3S,5R)-2-(2-(4-amino-8-methyl-6-(2-methylpyrimidin-5-yl)-9H-pyrimido[4,5-b]indol-9-yl)acetyl)-N-(6-bromopyridin-2-yl)-2-azabicyclo[3.1.0]hexane-3-carboxamide]

The next lines start with the compound.

SMILES | pIC50
Nc1ncnn2c(CC(=O)N3C[C@H](F)C[C@H]3C(=O)Nc3cccc(Br)n3)ccc12 [Compound 69a, (2S,4R)-1-(2-(4-aminopyrrolo[2,1-f][1,2,4]triazin-7-yl)acetyl)-N-(6-bromopyridin-2-yl)-4-fluoropyrrolidine-2-carboxamide] | 6.00 to 7.00
N#Cc1cn(CC(=O)N2C[C@H](F)C[C@H]2C(=O)NCc2cccc(Cl)c2F)c2ncnc(N)c12 [Compound 130e, (2S,4R)-1-(2-(4-amino-5-cyano-7H-pyrrolo[2,3-d]pyrimidin-7-yl)acetyl)-N-(3-chloro-2-fluorobenzyl)-4-fluoropyrrolidine-2-carboxamide] | 6.00 to 7.00
CN(C)c1nc(N)c2ncn(CC(=O)N3[C@@H]4C[C@@H]4C[C@H]3C(=O)NCc3cccc(Cl)c3F)c2n1 [Compound 96e, (1R,3S,5R)-2-(2-(6-amino-2-(dimethylamino)-9H-purin-9-yl)acetyl)-N-(3-chloro-2-fluorobenzyl)-2-azabicyclo[3.1.0]hexane-3-carboxamide] | < 6.00
N#Cc1ccc2c(c1)c1c(N)ncnc1n2CC(=O)N1[C@@H]2C[C@@H]2C[C@H]1C(=O)Nc1cccc(Br)n1 [Compound 49c, (1R,3S,5R)-2-(2-(4-amino-6-cyano-9H-pyrimido[4,5-b]indol-9-yl)acetyl)-N-(6-bromopyridin-2-yl)-2-azabicyclo[3.1.0]hexane-3-carboxamide] | > 7.00
Nc1ncnc2c1c1cc([N+](=O)[O-])ccc1n2CC(=O)N1[C@@H]2C[C@@H]2C[C@H]1C(=O)Nc1cccc(Br)n1 [Compound 188g, (1R,3S,5R)-2-(2-(4-amino-6-nitro-9H-pyrimido[4,5-b]indol-9-yl)acetyl)-N-(6-bromopyridin-2-yl)-2-azabicyclo[3.1.0]hexane-3-carboxamide] | > 7.00
COc1cccc2c3c(N)ncnc3n(CC(=O)N3[C@@H]4C[C@@H]4C[C@H]3C(=O)Nc3cccc(Br)n3)c12 [Compound 54g, (1R,3S,5R)-2-(2-(4-amino-8-methoxy-9H-pyrimido[4,5-b]indol-9-yl)acetyl)-N-(6-bromopyridin-2-yl)-2-azabicyclo[3.1.0]hexane-3-carboxamide] | > 7.00
Nc1ncnc2c1c(-c1cccnc1)cn2CC(=O)N1C[C@H](F)C[C@H]1C(=O)NCc1cccc(Cl)c1F [Compound 114f, (2S,4R)-1-(2-(4-amino-5-(pyridin-3-yl)-7H-pyrrolo[2,3-d]pyrimidin-7-yl)acetyl)-N-(3-chloro-2-fluorobenzyl)-4-fluoropyrrolidine-2-carboxamide] | > 7.00
NC[C@H]1C[C@@H](C(=O)Nc2cccc(Br)n2)N(C(=O)Cn2c3ccc(C(F)(F)F)cc3c3c(N)ncnc32)C1 [Compound 212e, (2S,4R)-1-(2-(4-amino-6-(trifluoromethyl)-9H-pyrimido[4,5-b]indol-9-yl)acetyl)-4-(aminomethyl)-N-(6-bromopyridin-2-yl)pyrrolidine-2-carboxamide] | 6.00 to 7.00
Cc1ccc(Br)nc1NC(=O)[C@@H]1C[C@@]2(C)C[C@H]2N1C(=O)Cn1c2ccccc2c2c(N)ncnc21 [Compound 12a, (1R,3S,5R)-2-(2-(4-amino-9H-pyrimido[4,5-b]indol-9-yl)acetyl)-N-(6-bromo-3-methylpyridin-2-yl)-5-methyl-2-azabicyclo[3.1.0]hexane-3-carboxamide] | > 7.00
CC(C)=C(F)CNC(=O)[C@@H]1C[C@H]2C[C@H]2N1C(=O)Cn1cnc2c(N)ncnc21 [Compound 111b, (1R,3S,5R)-2-(2-(6-amino-9H-purin-9-yl)acetyl)-N-(2-fluoro-3-methylbut-2-en-1-yl)-2-azabicyclo[3.1.0]hexane-3-carboxamide] | 6.00 to 7.00
Cc1nc2c(N)ncnc2n1CC(=O)N1C[C@H](F)C[C@H]1C(=O)NCc1cccc(Cl)c1F [Compound 152d, (2S,4R)-1-(2-(6-amino-8-methyl-9H-purin-9-yl)acetyl)-N-(3-chloro-2-fluorobenzyl)-4-fluoropyrrolidine-2-carboxamide] | 6.00 to 7.00
COC(=O)c1cnc2c(ccn2CC(=O)N2C[C@H](F)C[C@H]2C(=O)NCc2cccc(Cl)c2F)c1N [Compound 147a, methyl 4-amino-1-(2-((2S,4R)-2-((3-chloro-2-fluorobenzyl)carbamoyl)-4-fluoropyrrolidin-1-yl)-2-oxoethyl)-1H-pyrrolo[2,3-b]pyridine-5-carboxylate] | < 6.00
C[C@@]12C[C@@H](C(=O)Nc3cccc(Br)n3)N(C(=O)Cn3c4ncccc4c4c(N)ncnc43)[C@@H]1C2 [Compound 183a, (1R,3S,5R)-2-(2-(4-amino-9H-pyrido[3′,2′:4,5]pyrrolo[2,3-d]pyrimidin-9-yl)acetyl)-N-(6-bromopyridin-2-yl)-5-methyl-2-azabicyclo[3.1.0]hexane-3-carboxamide] | > 7.00
Nc1ncnc2c1ncn2CC(=O)N1[C@@H]2C[C@@H]2C[C@H]1C(=O)NCC1CC1(Cl)Cl (stereo partly drawn) [Compound 103b, (1R,3S,5R)-2-(2-(6-amino-9H-purin-9-yl)acetyl)-N-((2,2-dichlorocyclopropyl)methyl)-2-azabicyclo[3.1.0]hexane-3-carboxamide] | 6.00 to 7.00

From US12679843B2, “Pyrrolopyrimidine amines as complement inhibitors” (BioCryst Pharmaceuticals, Inc., priority 2020, dated 2026)
